Assay results taken from the NIST ThermoML archive (doi:10.1021/je400790d).
Numbers after ± are expanded uncertainties.

Assay: mn = molality of the nth substance listed, in mol/kg
Conditions: 100 kPa, Liquid, Vibrating tube method

CCCCCCCC[N+]1(C)CCOCC1.O=S(=O)([N-]S(=O)(=O)C(F)(F)F)C(F)(F)F + CC#N
mass density [kg/m3]
Conditions	m1 = 0.00838	m1 = 0.01564	m1 = 0.02472	m1 = 0.03714	m1 = 0.05106	m1 = 0.06653	m1 = 0.08502	m1 = 0.1052	m1 = 0.1294	m1 = 0.1609
298.15 K	777.974 ± 0.39	779.195 ± 0.39	780.71 ± 0.39	782.766 ± 0.38	785.044 ± 0.38	787.549 ± 0.38	790.507 ± 0.37	793.696 ± 0.37	797.448 ± 0.36	802.25 ± 0.36
303.15 K	772.547 ± 0.39	773.77 ± 0.39	775.289 ± 0.39	777.348 ± 0.39	779.63 ± 0.38	782.14 ± 0.38	785.101 ± 0.38	788.29 ± 0.37	792.039 ± 0.36	796.85 ± 0.36
308.15 K	767.094 ± 0.4	768.318 ± 0.39	769.839 ± 0.39	771.899 ± 0.39	774.185 ± 0.38	776.698 ± 0.38	779.664 ± 0.38	782.856 ± 0.37	786.61 ± 0.37	791.423 ± 0.36
313.15 K	761.606 ± 0.4	762.833 ± 0.39	764.357 ± 0.39	766.421 ± 0.39	768.71 ± 0.38	771.222 ± 0.38	774.189 ± 0.38	777.385 ± 0.37	781.149 ± 0.37	785.97 ± 0.36
318.15 K	756.08 ± 0.4	757.311 ± 0.4	758.838 ± 0.39	760.906 ± 0.39	763.198 ± 0.39	765.716 ± 0.38	768.695 ± 0.38	771.901 ± 0.37	775.667 ± 0.37	780.493 ± 0.37

CC[N+]1(C)CCOCC1.O=S(=O)([N-]S(=O)(=O)C(F)(F)F)C(F)(F)F + CC#N
mass density [kg/m3]
Conditions	m1 = 0.009434	m1 = 0.01654	m1 = 0.02652	m1 = 0.03788	m1 = 0.05256	m1 = 0.06858	m1 = 0.08695	m1 = 0.1078	m1 = 0.1316	m1 = 0.1634
298.15 K	778.145 ± 0.39	779.333 ± 0.39	780.985 ± 0.39	782.85 ± 0.38	785.24 ± 0.38	787.81 ± 0.38	790.74 ± 0.37	794.037 ± 0.37	797.714 ± 0.36	802.54 ± 0.36
303.15 K	772.716 ± 0.39	773.905 ± 0.39	775.56 ± 0.39	777.429 ± 0.38	779.815 ± 0.38	782.385 ± 0.38	785.318 ± 0.37	788.611 ± 0.37	792.286 ± 0.36	797.108 ± 0.36
308.15 K	767.263 ± 0.39	768.452 ± 0.39	770.11 ± 0.39	771.974 ± 0.38	774.365 ± 0.38	776.944 ± 0.38	779.877 ± 0.37	783.146 ± 0.37	786.836 ± 0.36	791.661 ± 0.36
313.15 K	761.774 ± 0.4	762.964 ± 0.39	764.619 ± 0.39	766.483 ± 0.38	768.876 ± 0.38	771.442 ± 0.38	774.373 ± 0.38	777.657 ± 0.37	781.334 ± 0.36	786.155 ± 0.36
318.15 K	756.247 ± 0.39	757.44 ± 0.39	759.113 ± 0.39	760.976 ± 0.39	763.372 ± 0.38	765.945 ± 0.38	768.855 ± 0.38	772.158 ± 0.37	775.832 ± 0.36	780.648 ± 0.36

CCCC[N+]1(C)CCOCC1.O=S(=O)([N-]S(=O)(=O)C(F)(F)F)C(F)(F)F + CC#N
mass density [kg/m3]
Conditions	m1 = 0.00879	m1 = 0.01653	m1 = 0.02761	m1 = 0.03802	m1 = 0.05226	m1 = 0.06737	m1 = 0.08642	m1 = 0.1101	m1 = 0.13	m1 = 0.1623
298.15 K	778.005 ± 0.38	779.272 ± 0.38	781.074 ± 0.38	782.759 ± 0.38	785.036 ± 0.38	787.436 ± 0.37	790.427 ± 0.37	794.115 ± 0.36	797.144 ± 0.36	802.019 ± 0.36
303.15 K	772.575 ± 0.39	773.845 ± 0.38	775.647 ± 0.38	777.331 ± 0.38	779.607 ± 0.38	781.999 ± 0.37	784.994 ± 0.37	788.679 ± 0.37	791.717 ± 0.36	796.577 ± 0.36
308.15 K	767.12 ± 0.39	768.39 ± 0.38	770.192 ± 0.38	771.873 ± 0.38	774.153 ± 0.38	776.549 ± 0.37	779.543 ± 0.37	783.226 ± 0.37	786.253 ± 0.36	791.135 ± 0.36
313.15 K	761.631 ± 0.39	762.901 ± 0.39	764.703 ± 0.38	766.385 ± 0.38	768.667 ± 0.38	771.064 ± 0.37	774.057 ± 0.37	777.74 ± 0.37	780.771 ± 0.36	785.644 ± 0.36
318.15 K	756.103 ± 0.39	757.375 ± 0.39	759.178 ± 0.38	760.862 ± 0.38	763.147 ± 0.38	765.551 ± 0.38	768.552 ± 0.37	772.235 ± 0.37	775.257 ± 0.36	780.136 ± 0.36
